# Data taken from the Deep4Chem optical property database.
# Assay: solvent given as SMILES
structure (smiles),measurement,setting,value
CCC1=C(C)C2=Cc3cc(I)cn3[B-](F)(F)[N+]2=C1C,absorption maximum,in C1CCCCC1,528 nm
same,absorption maximum,in CC(C)=O,509.5 nm
same,absorption maximum,in CCO,514 nm
same,absorption maximum,in CCOC(C)=O,513 nm
same,absorption maximum,in CO,511.5 nm
same,absorption maximum,in OCC(F)(F)F,504 nm
CC1=[N+]2C(=C(c3ccccc3)c3c4c5ccccc5c5ccccc5c4c(C)n3[B-]2(F)F)c2c1c1ccccc1c1ccccc21,absorption maximum,in CCCCCC,630 nm
CC[N+]1(CC)CN2C(=N1)C(C(=O)O)=Cc1cc(C)c(C)cc12,absorption maximum,in O,378 nm
CCOC(=O)c1cc(C(=O)OCC)c2ccc(N(C)C)cc2n1,absorption maximum,in CCO,430 nm
CCC1=C(C)C(=O)n2c1cc1c(CCC(=O)O)c(C)c(C)n1c2=O,absorption maximum,in CC#N,416 nm
same,absorption maximum,in CC(C)=O,415 nm
same,absorption maximum,in CO,421 nm
same,absorption maximum,in CS(C)=O,421 nm
same,absorption maximum,in ClC(Cl)Cl,423 nm
same,absorption maximum,in c1ccccc1,419 nm
O=[N+]([O-])c1ccc(/C=C/c2cn(S(=O)(=O)c3ccccc3)c3ccccc23)cc1,absorption maximum,in CC#N,369 nm
same,absorption maximum,in CCCCCCC,357 nm
same,absorption maximum,in CO,367 nm
same,absorption maximum,in O,378 nm
CCCCN1/C(=C/C=C/C2=[N+](C)c3ccccc3C2(C)C)C(C)(C)c2c1ccc1ccccc21,absorption maximum,in CS(C)=O,572 nm
CCC1(CC)c2cc(B(c3c(C)cc(C)cc3C)c3c(C)cc(C)cc3C)ccc2-c2c1c1c(c3c2C(CC)(CC)c2cc(B(c4c(C)cc(C)cc4C)c4c(C)cc(C)cc4C)ccc2-3)C(CC)(CC)c2cc(B(c3c(C)cc(C)cc3C)c3c(C)cc(C)cc3C)ccc2-1,absorption maximum,in C1CCOC1,362 nm
same,absorption maximum,in CC#N,359 nm
same,absorption maximum,in CC(C)=O,360 nm
same,absorption maximum,in CCCCCC,362 nm
same,absorption maximum,in Cc1ccccc1,364 nm
F[B-]1(F)OC(C#Cc2ccccc2)=CC(c2ccccc2)=[O+]1,absorption maximum,in ClCCl,401 nm
C[Si](C)(C)C#Cc1c2c(=O)c3ccccc3c2c(C#C[Si](C)(C)C)c2c(=O)c3ccccc3c12,absorption maximum,in ClC(Cl)Cl,524 nm
C[Si]1(C)O[Si](C)(C)c2cc3c(-c4ccccc4F)c4cc(Cl)ccc4nc3cc21,absorption maximum,in ClCCl,380 nm
Cc1cc(C)c(B(c2ccc3c(c2)c2cc(B(c4c(C)cc(C)cc4C)c4c(C)cc(C)cc4C)ccc2n3-c2ccc(C(=C(c3ccccc3)c3ccccc3)c3ccccc3)cc2)c2c(C)cc(C)cc2C)c(C)c1,absorption maximum,in C1CCOC1,358 nm
CC[n+]1nc2cc3c4c(c2c2cc(F)ccc21)CCCN4CCC3,absorption maximum,in O,494 nm
CSc1ccc2c(c1)N(CCCN1CCN(C)CN1C)c1ccccc1S2,absorption maximum,in CC#N,316 nm
same,absorption maximum,in CO,314 nm
same,absorption maximum,in O,312 nm
CN(C)c1ccc(/C=C/c2ccc(-c3cc(-c4ccccn4)nc(-c4ccccn4)c3)cc2)cc1,absorption maximum,in C1CCOC1,375 nm
same,absorption maximum,in C1COCCO1,369 nm
same,absorption maximum,in CC#N,379 nm
same,absorption maximum,in CCO,379 nm
same,absorption maximum,in ClCCl,381 nm
c1ccc(-n2c(-c3cccc4ccccc34)nc3c4ccccc4c4ccccc4c32)cc1,absorption maximum,in Cc1ccccc1,356 nm
Cc1ccc(-c2ccc(/C=C/c3ccc(Br)n3C)cn2)nc1,absorption maximum,in CC#N,373 nm
O=C1NC(=O)/C(=C\c2ccccc2O)S1,absorption maximum,in C1CCCCC1,347 nm
same,absorption maximum,in C1COCCO1,350 nm
same,absorption maximum,in CC#N,348 nm
same,absorption maximum,in CN(C)C=O,353 nm
same,absorption maximum,in CO,352 nm
same,absorption maximum,in O,351 nm
same,absorption maximum,in OCC(O)CO,364 nm
same,absorption maximum,in OCCO,360 nm
COc1ccc(C2=C/C(=C\c3ccc(C#N)cc3)C(=O)O2)cc1OC,absorption maximum,in C1COCCO1,428 nm
Cc1ccc2c(c1)NC(=O)CC(=O)N2,absorption maximum,in CS(C)=O,294 nm
c1cc2ccc3ccc4cc3c2cc1c1ccc2ccc3ccc(cc3c2c1)c1ccc2c(c1)c1cc4ccc1[C@]13OCCO[C@]21OCCO3,absorption maximum,in Cc1ccccc1,366 nm
Cc1cc(C)c(B(c2cc(-c3ccccc3)sc2-c2sc(-c3ccccc3)cc2P(=O)(c2ccccc2)c2ccccc2)c2c(C)cc(C)cc2C)c(C)c1,absorption maximum,in CO,392 nm
CCCCN1C(=O)c2ccc3c4ccc5c6c(ccc(c7ccc(c2c37)C1=O)c64)C(=O)N(CCCC)C5=O,absorption maximum,in ClC(Cl)Cl,526 nm
CCOC(=O)c1csc2[n+]1[B-](F)(F)OC(c1ccc(N(C)C)cc1)=N2,absorption maximum,in C1CCOC1,404 nm
same,absorption maximum,in CC#N,405 nm
same,absorption maximum,in Cc1ccccc1,406 nm
same,absorption maximum,in ClCCl,412 nm
CN(C)c1ccc(/C=C/c2cc(/C=C/c3ccc(N(C)C)cc3)nc(/C=C/c3ccc(C(F)(F)F)cc3)n2)cc1,absorption maximum,in ClCCl,429 nm
CNCCCN1c2ccccc2CCc2ccccc21,absorption maximum,in CC#N,276 nm
same,absorption maximum,in CO,276 nm
same,absorption maximum,in O,275 nm
CCCC1=Cc2nc1ccc1[nH]c(cc1CCC)c1nc(c(O)cc3[nH]c2cc3CCC)C(CCC)=C1,absorption maximum,in Cc1ccccc1,677 nm
CC(C)(C)c1ccc(-c2nc3ccccc3nc2-c2cc(-c3nc4ccccc4nc3-c3ccc(C(C)(C)C)cc3)cc(-n3c4ccccc4c4ccccc43)c2)cc1,absorption maximum,in Cc1ccccc1,344 nm
CCC1=C(C)C2=Cc3c4ccccc4c4n3[B-](c3cc[n+](C)cc3)(Oc3ccccc3-4)[N+]2=C1C (stereo not given),absorption maximum,in CO,621 nm
same,absorption maximum,in CS(C)=O,626 nm
N#Cc1cc(/C=C/c2ccc(/C=C/c3ccc(N(c4ccccc4)c4ccccc4)cc3)c(C#N)c2)ccc1/C=C/c1ccc(N(c2ccccc2)c2ccccc2)cc1,absorption maximum,in ClCCl,429 nm
CN(C)c1ccc(C#Cc2cc(C#Cc3ccc(C(F)(F)F)cc3)c3ccc4c(C#Cc5ccc(C(F)(F)F)cc5)cc(C#Cc5ccc(N(C)C)cc5)c5ccc2c3c54)cc1,absorption maximum,in ClCCl,506 nm
Clc1ccc(/C=C/c2ccncn2)cc1,absorption maximum,in ClCCl,310 nm
COC(=O)/C(C#N)=c1\s/c(=c2/s/c(=C(/C#N)C(=O)OC)c3cc(-c4ccc(OC)cc4)sc23)c2sc(-c3ccc(OC)cc3)cc12,absorption maximum,in Cc1ccccc1,628 nm
c1ccc2c(c1)-c1ccccc1C21c2cc(-c3ccc(-n4c5ccccc5c5ccccc54)cc3)ccc2Sc2ccc(-c3ccc(-n4c5ccccc5c5ccccc54)cc3)cc21,absorption maximum,in ClCCl,341 nm
CCCCCCCCCCCCOc1cc2cc(N(C)C)ccc2cc1C#N,absorption maximum,in C1CCOC1,361 nm
same,absorption maximum,in CC#N,368 nm
same,absorption maximum,in CCCCCC,336 nm
same,absorption maximum,in CCO,368 nm
same,absorption maximum,in CCOC(C)=O,361 nm
same,absorption maximum,in CS(C)=O,369 nm
same,absorption maximum,in ClCCl,368 nm
same,absorption maximum,in O,368 nm
Cc1cc(=O)c2ccc(N)cc2o1,absorption maximum,in C1CCOC1,323 nm
same,absorption maximum,in C1COCCO1,314 nm
same,absorption maximum,in CC#N,315 nm
same,absorption maximum,in CC(C)O,327 nm
same,absorption maximum,in CCCCO,329 nm
same,absorption maximum,in CCCO,329 nm
same,absorption maximum,in CCOC(C)=O,315 nm
same,absorption maximum,in CN(C)C=O,325 nm
same,absorption maximum,in CO,327 nm
same,absorption maximum,in CS(C)=O,326 nm
same,absorption maximum,in ClC(Cl)Cl,311 nm
same,absorption maximum,in O,322 nm
C[P+]1(c2ccccc2)C2=C(c3ccccc31)S(=O)(=O)c1ccccc12 (stereo not given),absorption maximum,in CC#N,388 nm
same,absorption maximum,in CCO,319 nm
same,absorption maximum,in ClCCl,395 nm
Cc1ccc(C)c(C)c1,absorption maximum,in C1CCCCC1,263.78 nm
Brc1ccc(N/C=C/C=[NH+]c2ccc(Br)cc2)cc1,absorption maximum,in CS(C)=O,386 nm
Cc1ccc(C(=O)OCc2ccc3c4cccc5cccc(c6cccc2c63)c54)cc1,absorption maximum,in CCO,438 nm
CCN(CC)c1ccc(-c2nc3c(nc2-c2ccc(B(c4c(C)cc(C)cc4C)c4c(C)cc(C)cc4C)cc2)c2ccccc2n3C)cc1,absorption maximum,in C1CCOC1,405 nm
Brc1ccc(N(c2ccc(/C=C/c3ccncn3)cc2)c2ccc(/C=C/c3ccncn3)cc2)cc1,absorption maximum,in ClCCl,417 nm
CCOC(=O)c1c(NC(C)(C)C)oc(-c2ccc(-c3ccccc3)cc2)c1C(=O)OCC,absorption maximum,in CC#N,355 nm
C1=[N+](c2ccccc2)[B-](c2ccccc2)(c2ccccc2)Oc2c1ccc1c3c(ccc21)C=[N+](c1ccccc1)[B-](c1ccccc1)(c1ccccc1)O3,absorption maximum,in Cc1ccccc1,536 nm
same,absorption maximum,in ClCCl,529 nm
CC1(C)c2ccccc2N(c2ccc3c(c2)Oc2ccccc2P3(=O)c2ccccc2)c2ccccc21 (stereo not given),absorption maximum,in Cc1ccccc1,348 nm
Fc1c(F)c(-n2c3ccccc3c3ccccc32)c(F)c(F)c1-c1nnc(-c2ccccc2)o1,absorption maximum,in Cc1ccccc1,344 nm
CC1=C(C)C(c2c(C)c(C)c3n2[B-](F)(F)[N+]2=C(C)C(C)=C(C)C2=C3)=[N+]2C1=Cc1c(C)c(C)c(C)n1[B-]2(F)F,absorption maximum,in ClCCl,562 nm
CCCCCCCCCCCCCCCCCCN1C(=O)c2cccc3c(OCCN(C)C)ccc(c23)C1=O,absorption maximum,in CC#N,363 nm
same,absorption maximum,in CC(C)=O,362 nm
same,absorption maximum,in CCO,362 nm
same,absorption maximum,in CCOC(C)=O,363 nm
same,absorption maximum,in CCOCC,359 nm
same,absorption maximum,in CN(C)C=O,364 nm
same,absorption maximum,in ClCCl,363 nm
c1cc2c3c(cccc3c1)-c1cc3c(ccc4ccccc43)cc1-2,absorption maximum,in CCCCCCC,405 nm
[O-][n+]1c(/C=C/c2ccccc2)nc(N2CCOCC2)c2c1CCCC2,absorption maximum,in ClCCl,400 nm
Cc1cc(C)c(C2=C3C=C(/C=C/C(=O)OC(C)(C)C)C=[N+]3[B-](F)(F)n3c2ccc3N2CCOCC2)c(C)c1,absorption maximum,in CC#N,480 nm
same,absorption maximum,in CCCCCC,532 nm
same,absorption maximum,in CN(C)C=O,485 nm
same,absorption maximum,in CO,483 nm
same,absorption maximum,in Cc1ccccc1,525 nm
same,absorption maximum,in ClCCl,497 nm
Cc1ccc2c(c1)C(=O)c1ccncc1-2,absorption maximum,in CC#N,408.95 nm
same,absorption maximum,in CCCCCC,408.95 nm
COc1ccccc1NC1=CC(=O)c2ccccc2C1=O,absorption maximum,in CCCCCC,468 nm
same,absorption maximum,in CO,476 nm
CCN(CC)/C(C)=N\c1ccc2c3c(cccc13)C(=O)c1ccccc1-2,absorption maximum,in C1CCOC1,472 nm
same,absorption maximum,in CCCCCC,444 nm
same,absorption maximum,in CCO,473 nm
same,absorption maximum,in CCOC(C)=O,463 nm
same,absorption maximum,in CN(C)C=O,479 nm
same,absorption maximum,in CO,472 nm
same,absorption maximum,in Cc1ccccc1,461 nm
same,absorption maximum,in ClC(Cl)(Cl)Cl,467 nm
same,absorption maximum,in ClC(Cl)Cl,467 nm
same,absorption maximum,in ClCCl,467 nm
same,absorption maximum,in c1ccccc1,462 nm
CSc1nccc(/C=C/c2ccc(N(c3ccccc3)c3ccc(/C=C/c4ccnc(SC)n4)cc3)cc2)n1,absorption maximum,in ClCCl,430 nm
